The supplement of paper PMC10307832

Tests used:
Assay in all cases: relative viability (nuclei count vs DMSO), 5 days (fraction); higher = more cells survive
EMC-BAC-2 = tested on: EMC-BAC-2
In short: (§1)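 For relative viability, nuclei counts in treated wells were divided by those in vehicle wells. Lung cancer cell lines had been pin-tool dosed in 1536-well plates the day after seeding and cultured for 5 days, then fixed and stained in one step (final 0.05% Triton X-100, 1% formaldehyde, 1 ug/ml Hoechst) and imaged at 4×. Doses were one drug alone or a fixed anchor-drug dose plus five library-drug doses (not always all listed) in √10 steps, and values are duplicate-plate medians.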

NCI-H1755 = tested on: NCI-H1755
In short: as §1

NCI-H1944 = tested on: NCI-H1944
In short: as §1

LC-2-ad = tested on: LC-2-ad
In short: as §1

NCI-H2087 = tested on: NCI-H2087
In short: as §1

SK-LU-1 = tested on: SK-LU-1
In short: as §1

SK-MES-1 = tested on: SK-MES-1
In short: as §1

COR-L 105 = tested on: COR-L 105
In short: as §1

PC-3 [JPC-3] = tested on: PC-3 [JPC-3]
In short: as §1

NCI-H661 = tested on: NCI-H661
In short: as §1

NCI-H2347 = tested on: NCI-H2347
In short: as §1

NCI-H2085 = tested on: NCI-H2085
In short: as §1

CAL-12T = tested on: CAL-12T
In short: as §1

LK-2 = tested on: LK-2
In short: as §1

NCI-H1793 = tested on: NCI-H1793
In short: as §1

H3255 = tested on: H3255
In short: as §1

NCI-H2228 = tested on: NCI-H2228
In short: as §1

NCI-H1651 = tested on: NCI-H1651
In short: as §1

NCI-H1915 = tested on: NCI-H1915
In short: as §1

NCI-H1437 = tested on: NCI-H1437
In short: as §1

EKVX = tested on: EKVX
In short: as §1

LXF-289 = tested on: LXF-289
In short: as §1

NCI-H1395 = tested on: NCI-H1395
In short: as §1

## Cc1cnc(-c2cnc(NCCNc3ccc(C#N)cn3)nc2-c2ccc(Cl)cc2Cl)[nH]1 + CS(=O)(=O)CCNCc1ccc(-c2ccc3ncnc(Nc4ccc(OCc5cccc(F)c5)c(Cl)c4)c3c2)o1 [Lapatinib] (partner 2 µM)
EMC-BAC-2; first compound 0.08 µM
  relative viability: 1.02
EMC-BAC-2; first compound 0.253 µM
  relative viability: 0.808
EMC-BAC-2; first compound 0.8 µM
  relative viability: 0.887
EMC-BAC-2; first compound 2.53 µM
  relative viability: 0.859
NCI-H1755; first compound 0.08 µM
  relative viability: 1.04
NCI-H1755; first compound 0.253 µM
  relative viability: 0.785
NCI-H1755; first compound 0.8 µM
  relative viability: 1.06
NCI-H1755; first compound 2.53 µM
  relative viability: 1.07
NCI-H1944; first compound 0.08 µM
  relative viability: 0.858
NCI-H1944; first compound 0.8 µM
  relative viability: 0.776
NCI-H1944; first compound 2.53 µM
  relative viability: 0.872
LC-2-ad; first compound 0.08 µM
  relative viability: 1.06
LC-2-ad; first compound 0.8 µM
  relative viability: 0.761
LC-2-ad; first compound 2.53 µM
  relative viability: 0.898
NCI-H2087; first compound 0.08 µM
  relative viability: 1.16
NCI-H2087; first compound 0.253 µM
  relative viability: 0.729
NCI-H2087; first compound 0.8 µM
  relative viability: 1.39
NCI-H2087; first compound 2.53 µM
  relative viability: 0.979
SK-LU-1; first compound 0.08 µM
  relative viability: 0.87
SK-LU-1; first compound 0.253 µM
  relative viability: 0.96
SK-LU-1; first compound 0.8 µM
  relative viability: 0.999
SK-LU-1; first compound 2.53 µM
  relative viability: 1.11
SK-MES-1; first compound 0.08 µM
  relative viability: 0.514
SK-MES-1; first compound 0.253 µM
  relative viability: 0.474
SK-MES-1; first compound 0.8 µM
  relative viability: 0.439
SK-MES-1; first compound 2.53 µM
  relative viability: 0.559
COR-L 105; first compound 0.08 µM
  relative viability: 0.397
COR-L 105; first compound 0.253 µM
  relative viability: 0.348
COR-L 105; first compound 0.8 µM
  relative viability: 0.318
COR-L 105; first compound 2.53 µM
  relative viability: 0.403
PC-3 [JPC-3]; first compound 0.08 µM
  relative viability: 0.498
PC-3 [JPC-3]; first compound 0.253 µM
  relative viability: 0.449
PC-3 [JPC-3]; first compound 0.8 µM
  relative viability: 0.419
PC-3 [JPC-3]; first compound 2.53 µM
  relative viability: 0.474
NCI-H661; first compound 0.08 µM
  relative viability: 0.523
NCI-H661; first compound 0.253 µM
  relative viability: 0.452
NCI-H661; first compound 0.8 µM
  relative viability: 0.449
NCI-H661; first compound 2.53 µM
  relative viability: 0.54
NCI-H2347; first compound 0.08 µM
  relative viability: 0.862
NCI-H2347; first compound 0.253 µM
  relative viability: 0.649
NCI-H2347; first compound 0.8 µM
  relative viability: 1.06
NCI-H2347; first compound 2.53 µM
  relative viability: 1.02
NCI-H2085; first compound 0.08 µM
  relative viability: 0.837
NCI-H2085; first compound 0.253 µM
  relative viability: 0.8
NCI-H2085; first compound 0.8 µM
  relative viability: 0.786
NCI-H2085; first compound 2.53 µM
  relative viability: 0.848
CAL-12T; first compound 0.253 µM
  relative viability: 0.64
CAL-12T; first compound 2.53 µM
  relative viability: 0.627
LK-2; first compound 0.08 µM
  relative viability: 1.1
LK-2; first compound 0.253 µM
  relative viability: 0.885
LK-2; first compound 0.8 µM
  relative viability: 0.928
LK-2; first compound 2.53 µM
  relative viability: 0.897
NCI-H1793; first compound 0.08 µM
  relative viability: 0.608
NCI-H1793; first compound 0.253 µM
  relative viability: 0.678
NCI-H1793; first compound 0.8 µM
  relative viability: 0.721
NCI-H1793; first compound 2.53 µM
  relative viability: 1.02
H3255; first compound 0.08 µM
  relative viability: 0.28
H3255; first compound 0.253 µM
  relative viability: 0.249
H3255; first compound 0.8 µM
  relative viability: 0.219
H3255; first compound 2.53 µM
  relative viability: 0.244
NCI-H2228; first compound 0.08 µM
  relative viability: 1.23
NCI-H2228; first compound 0.253 µM
  relative viability: 0.904
NCI-H2228; first compound 0.8 µM
  relative viability: 0.911
NCI-H2228; first compound 2.53 µM
  relative viability: 0.781
NCI-H1651; first compound 0.08 µM
  relative viability: 0.937
NCI-H1651; first compound 0.253 µM
  relative viability: 0.712
NCI-H1651; first compound 0.8 µM
  relative viability: 0.862
NCI-H1651; first compound 2.53 µM
  relative viability: 0.917
NCI-H1915; first compound 0.08 µM
  relative viability: 0.985
NCI-H1915; first compound 0.8 µM
  relative viability: 0.947
NCI-H1915; first compound 2.53 µM
  relative viability: 1.04
NCI-H1437; first compound 0.08 µM
  relative viability: 0.848
NCI-H1437; first compound 0.253 µM
  relative viability: 0.715
NCI-H1437; first compound 0.8 µM
  relative viability: 0.805
NCI-H1437; first compound 2.53 µM
  relative viability: 0.793
EKVX; first compound 0.08 µM
  relative viability: 0.235
EKVX; first compound 0.253 µM
  relative viability: 0.222
EKVX; first compound 2.53 µM
  relative viability: 0.224
LXF-289; first compound 0.08 µM
  relative viability: 0.957
LXF-289; first compound 0.253 µM
  relative viability: 0.806
LXF-289; first compound 0.8 µM
  relative viability: 0.896
LXF-289; first compound 2.53 µM
  relative viability: 1.04
NCI-H1395; first compound 0.08 µM
  relative viability: 1.04
NCI-H1395; first compound 0.253 µM
  relative viability: 0.776
NCI-H1395; first compound 0.8 µM
  relative viability: 1.07
NCI-H1395; first compound 2.53 µM
  relative viability: 0.94
